Experimental data taken from patent US10259843B2, “Cyclic tetrapeptide stereoisomers” (University of Kansas, priority 2014, dated 2019).
“Also recorded” adds a separate entry of the source. Non-standard residues stand in square brackets, D forms with d. Residues, ends and D or L forms follow the SMILES beside them.

Columns and labels:
mu opioid receptor (MOR) = mu opioid receptor (MOR) (Homo sapiens, UniProt P35372); test: radioligand binding assay, mu opioid receptor affinity; conditions: n in parentheses; read-out: Ki (nM ± SEM) MOR
Description: (§1) The peptides of Table 1 shown below in Tables 3 and 4 were evaluated in radioligand binding assays for mu, kappa and delta opioid receptor affinities in vitro, and in the mouse 55° C. warm water tail withdrawal assay in vivo for antinociception and opioid antagonist activity.

acute tolerance model = conditions: in vivo
[1] = conditioned place response assay; conditions: oral administration of the peptides
[2] = other pain models (formalin, acetic acid stretching, nerve constriction; FIGS. 1-3B); conditions: in vivo
Excerpt: These models are based on the formalin assay, the acetic acid stretching assay, and the nerve constriction assay. The formalin and acetic acid stretching assays are indicative of activity against inflammatory pain (i.e., nociceptive pain) and the nerve constriction assay is indicative of activity against neuropathic pain.

[3] = mouse 55° C. warm water tail withdrawal assay, antinociception; assay type: in vivo
Description: as §1

[4] = nerve constriction assay for neuropathic pain; assay type: in vivo, rodent; conditions: 3 mg/kg, 10 mg/kg, and 30 mg/kg; compared to 50 mg/kg gabapentin
Description: In the nerve constriction assay, a nerve of a subject rodent is chronically constricted or cuffed and then the animal is assessed for response to pain stimuli such a paw withdrawal. […] Gabapentin is an accepted treatment for neuropathic pain.

[5] = acetic acid stretching assay; assay type: in vivo; conditions: 10 mg/kg and 30 mg/kg
Description: The acetic acid stretching assay is a model for visceral pain and is the most popular chemical assay of nociception. In the assay, subjects are given a subcutaneous (s.c.) injection of drug or vehicle 60 min before an intraperitoneal (i.p.) injection of 0.6% acetic acid. After administration of the acetic acid, the subjects are placed in clear cages (11×7×5 in) and scored for abdominal stretches during a 20 min observation period. Stretching was defined as body contortions, belly pressing, and extension of the hind limbs from which visceral nociception was inferred. […] And while the effect of 3607 was not as pronounced as with morphine, the observed reductions in stretching were significant, indication that 3607 has a significant pain reduction effect.

[6] = rotorod test for sedation and motor coordination; assay type: in vivo; set-up: key: ✓ indicates tested (if no other comment then no significant effect); conditions: 10 mg/kg, p.o.
respiratory depression = assay type: in vivo; set-up: key: ✓ indicates tested (if no other comment then no significant effect)
[7] = test system: opioid receptors (KOR, MOR, DOR); test: mouse 55° C. warm water tail withdrawal assay, opioid antagonist activity; assay type: in vivo; conditions: 30 nmol
Description: as §1

[8] = target: kappa opioid receptor (KOR) (Homo sapiens, UniProt P41145); test: radioligand binding assay, kappa opioid receptor affinity; conditions: n in parentheses; read-out: Ki (nM ± SEM) KOR
Description: as §1

[9] = target: delta opioid receptor (DOR) (Homo sapiens, UniProt P41143); test: radioligand binding assay, delta opioid receptor affinity; conditions: n in parentheses; read-out: Ki (nM ± SEM) DOR
Description: as §1

locomotion (CLAMS) = assay type: in vivo; set-up: key: ✓ indicates tested (if no other comment then no significant effect); conditions: 10 mg/kg, p.o.
formalin assay = assay type: in vivo, rodent; conditions: 10 mg/kg oral, vs saline i.p.
Description: It entails the injection of a dilute solution of formalin into the surface of the rodent's hindpaw, followed by the scoring of stereotypical behaviors such as flinching, licking, and biting of the affected hindpaw. The behaviors last for approximately 1 hour, with the early or acute stage (directly after injection) reflecting direct activation of nociceptors and the late or tonic phase (15 to 20 minutes after the injection) reflecting inflammation.

Sequence of delta opioid receptor (DOR) (P41143 whole entry): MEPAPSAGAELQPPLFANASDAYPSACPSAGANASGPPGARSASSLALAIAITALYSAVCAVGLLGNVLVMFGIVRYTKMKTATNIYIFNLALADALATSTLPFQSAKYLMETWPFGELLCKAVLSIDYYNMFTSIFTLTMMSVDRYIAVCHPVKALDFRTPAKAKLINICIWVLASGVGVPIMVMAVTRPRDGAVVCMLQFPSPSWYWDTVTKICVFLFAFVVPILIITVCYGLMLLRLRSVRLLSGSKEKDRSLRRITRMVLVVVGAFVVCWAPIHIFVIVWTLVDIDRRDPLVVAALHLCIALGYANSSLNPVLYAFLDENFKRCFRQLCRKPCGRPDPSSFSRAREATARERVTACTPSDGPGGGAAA
Sequence of kappa opioid receptor (KOR) (P41145 whole entry): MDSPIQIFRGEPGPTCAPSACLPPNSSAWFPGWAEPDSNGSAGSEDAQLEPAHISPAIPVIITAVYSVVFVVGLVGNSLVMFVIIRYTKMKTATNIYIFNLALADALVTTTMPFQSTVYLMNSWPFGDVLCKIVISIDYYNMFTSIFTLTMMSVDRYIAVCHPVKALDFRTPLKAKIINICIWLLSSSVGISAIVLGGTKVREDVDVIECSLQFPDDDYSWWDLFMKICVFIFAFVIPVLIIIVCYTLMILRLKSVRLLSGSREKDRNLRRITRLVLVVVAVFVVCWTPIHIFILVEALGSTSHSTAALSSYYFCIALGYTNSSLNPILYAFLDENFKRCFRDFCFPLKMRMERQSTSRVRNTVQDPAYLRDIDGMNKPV
Sequence of mu opioid receptor (MOR) (P35372 whole entry): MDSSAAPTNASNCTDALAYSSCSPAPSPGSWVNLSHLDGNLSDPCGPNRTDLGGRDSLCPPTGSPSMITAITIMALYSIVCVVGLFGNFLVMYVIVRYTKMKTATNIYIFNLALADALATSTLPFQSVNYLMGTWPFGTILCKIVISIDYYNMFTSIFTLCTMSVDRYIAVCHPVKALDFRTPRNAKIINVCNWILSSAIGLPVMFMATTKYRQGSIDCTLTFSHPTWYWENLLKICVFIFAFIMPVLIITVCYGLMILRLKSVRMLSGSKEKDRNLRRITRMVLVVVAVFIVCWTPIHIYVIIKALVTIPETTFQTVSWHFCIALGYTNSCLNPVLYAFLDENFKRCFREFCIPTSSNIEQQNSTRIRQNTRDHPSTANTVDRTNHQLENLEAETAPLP

## O=C1N[C@H](Cc2ccccc2)C(=O)N2CCC[C@@H]2C(=O)N[C@H](Cc2ccccc2)C(=O)N[C@H]1Cc1c[nH]c2ccccc12 [JVA 3607, cyclo-[D-Phe-D-Pro-D-Phe-Trp]] (cyclo([dF][dP][dF]W))
Mu opioid receptor (MOR)
  Ki: 7780 ± 410 nM
Acute tolerance model
  Acute Tolerance ED50 shift: 5.19 fold
[1]
  conditioned place preference (drug seeking behavior) or conditioned place aversion: no evidence of inducing drug seeking behavior; also recorded: do not show evidence of conditioned place preference (drug seeking behavior) or conditioned place aversion
[2]
  analgesic activity in other pain models: significant analgesic properties; also recorded: show activity against pain
[3]; antinociception, i.c.v.
  ED50 (95% CI) i.c.v.: 1.00 nmol
[3]; antinociception, p.o.
  ED50 (95% CI) p.o.: 4.12 mg/kg
[3]; opioid receptors contributing to antinociception
  Receptors involved: mu opioid receptors (MOR) are not involved; also recorded: KOR, DOR
[4]
  relief of neuropathic pain: significant relief of neuropathic pain
[5]
  antinociception (abdominal stretches): significant antinociception
[6]
  Rotorod (10 mg/kg, p.o.): ✓
Respiratory depression
  Respiratory depression 10 mg/kg p.o.: ✓
[7]
  Antagonism (dose, nmol): None (30)
[8]
  Ki: 2560 ± 480 nM
[9]
  Ki: > 10000 nM
Locomotion (CLAMS)
  Locomotion (CLAMS, 10 mg/kg, p.o.): ✓
Formalin assay
  time spent licking after formalin administration: significant reduction
